# Laboratory results as given in patent publication US4066753A, “Neomycin and paromomycin derivatives” (Canadian Patents and Development Limited, priority 1976, dated 1978).
# Read-outs that look alike come from different tables or passages of the source.
# Legend:
# P. aeruginosa 359 = test: IN VITRO antibacterial activity, P. aeruginosa 359; format: cell-based; details: Pseudomonas aeruginosa; P. aeruginosa 359; nutrient broth, 24 hours at 37° C; read-out: MIC
# Experimental: (§1) In the Tables above MIC stands for minimum inhibitory concentration and
# (§2) the results were obtained by providing halving dilutions of the test
# (§3) compound in nutrient broth (concentrations usually range from 1/10,000 to
# (§4) 1/320,000). These solutions are inoculated with the test organism,
# (§5) incubated for 24 hours at 37° C and then examined for the presence
# (§6) of growth. A test compound found to have a minimum inhibitory
# (§7) concentration (MIC) of 1/160,000 is generally considered as a lead.
# S. fecalis 353 = test: IN VITRO antibacterial activity, S. fecalis 353; format: cell-based; details: S. fecalis 353; nutrient broth, 24 hours at 37° C; read-out: MIC
# Experimental: as §1, §2, §3, §4, §5, §6, §7
# in vivo = details: mouse, iv, in mice (i.v), acute toxicity
# A. aerogenes 357 = test: IN VITRO antibacterial activity, A. aerogenes 357; format: cell-based; details: Klebsiella aerogenes; A. aerogenes 357; nutrient broth, 24 hours at 37° C; read-out: MIC
# Experimental: as §1, §2, §3, §4, §5, §6, §7
# E. coli B989 = test: IN VITRO antibacterial activity against resistant organisms, E. coli B989; format: cell-based; details: Escherichia coli; resistant organism E. coli B989; nutrient broth, 24 hours at 37° C; read-out: MIC
# Experimental: as §1, §2, §3, §4, §5, §6, §7
# S. pullorum 358 = test: IN VITRO antibacterial activity, S. pullorum 358; format: cell-based; details: Salmonella enterica; S. pullorum 358; nutrient broth, 24 hours at 37° C; read-out: MIC
# Experimental: as §1, §2, §3, §4, §5, §6, §7
# P. aeruginosa 377 = test: IN VITRO antibacterial activity against resistant organisms, P. aeruginosa 377; format: cell-based
# Experimental: as §1, §2, §3, §4, §5, §6, §7
# Pr. mirabilis 360 = test: IN VITRO antibacterial activity, Pr. mirabilis 360; format: cell-based; details: Proteus mirabilis; Pr. mirabilis 360; nutrient broth, 24 hours at 37° C; read-out: MIC
# Experimental: as §1, §2, §3, §4, §5, §6, §7
# [1] = test system: S. marcesceus 854 (ATCC → 103); test: IN VITRO antibacterial activity, S. marcesceus 854 (ATCC → 103); format: cell-based; details: S. marcesceus 854 (ATCC → 103); nutrient broth, 24 hours at 37° C; read-out: MIC
# Experimental: as §1, §2, §3, §4, §5, §6, §7
# S. pyogenes S B352 = test: IN VITRO antibacterial activity, S. pyogenes S B352; format: cell-based; details: Streptococcus pyogenes, SB352; S. pyogenes S B352; nutrient broth, 24 hours at 37° C; read-out: MIC
# Experimental: as §1, §2, §3, §4, §5, §6, §7
# [2] = test system: Kl. pneumoniae 855 (ATCC 10081); test: IN VITRO antibacterial activity, Kl. pneumoniae 855 (ATCC 10081); format: cell-based; details: Klebsiella pneumoniae, ATCC10081, nutrient broth, 24 hours at 37° C
# Experimental: as §1, §2, §3, §4, §5, §6, §7
# [3] = test system: strains of E. Coli resistant to neomycin and paromomycin; test: Antibacterial activity against resistant E. Coli; format: cell-based
# Experimental: as §1, §2, §3, §4, §5, §6, §7
# P. aeruginosa 87442 = test: IN VITRO antibacterial activity against resistant organisms, P. aeruginosa 87442; format: cell-based
# Experimental: as §1, §2, §3, §4, §5, §6, §7
# Pr. vulgaris 316 = test: IN VITRO antibacterial activity, Pr. vulgaris 316; format: cell-based; details: Proteus vulgaris; Pr. vulgaris 316; nutrient broth, 24 hours at 37° C; read-out: MIC
# Experimental: as §1, §2, §3, §4, §5, §6, §7
# S. pyogenes R 353 = test: IN VITRO antibacterial activity, S. pyogenes R 353; format: cell-based; details: Streptococcus pyogenes, R353; S. pyogenes R 353; nutrient broth, 24 hours at 37° C; read-out: MIC
# Experimental: as §1, §2, §3, §4, §5, §6, §7
# E. Coli 198 (ATCC 1/229) = test: IN VITRO antibacterial activity, E. Coli 198 (ATCC 1/229); format: cell-based; details: Escherichia coli, ATCC1; E. Coli 198 (ATCC 1/229); nutrient broth, 24 hours at 37° C; read-out: MIC
# Experimental: as §1, §2, §3, §4, §5, §6, §7
# [4] = test system: strains of P. Aeruginosa resistant to neomycin B and paromomycin I; test: Antibacterial activity against resistant P. Aeruginosa; format: cell-based
# Experimental: as §1, §2, §3, §4, §5, §6, §7
# E. coli B1002 = test: IN VITRO antibacterial activity against resistant organisms, E. coli B1002; format: cell-based; details: Escherichia coli
# Experimental: as §1, §2, §3, §4, §5, §6, §7
# S. pyogenes R = test: IN VITRO antibacterial activity, S. pyogenes R; format: cell-based; details: Streptococcus pyogenes; S. pyogenes R; nutrient broth, 24 hours at 37° C; read-out: MIC
# Experimental: as §1, §2, §3, §4, §5, §6, §7
# S. pyogenes S = test: IN VITRO antibacterial activity, S. pyogenes S; format: cell-based; details: Streptococcus pyogenes; S. pyogenes S; nutrient broth, 24 hours at 37° C; read-out: MIC
# Experimental: as §1, §2, §3, §4, §5, §6, §7
# S. pullorm = test: IN VITRO antibacterial activity, S. pullorm; format: cell-based; details: S. pullorm; nutrient broth, 24 hours at 37° C; read-out: MIC
# Experimental: as §1, §2, §3, §4, §5, §6, §7
# S. marcesceus = test: IN VITRO antibacterial activity, S. marcesceus; format: cell-based; details: S. marcesceus; nutrient broth, 24 hours at 37° C; read-out: MIC
# Experimental: as §1, §2, §3, §4, §5, §6, §7
# P. mirabilis = test: IN VITRO antibacterial activity, P. mirabilis; format: cell-based; details: Proteus mirabilis; P. mirabilis; nutrient broth, 24 hours at 37° C; read-out: MIC
# Experimental: as §1, §2, §3, §4, §5, §6, §7
# E. coli B996 = test: IN VITRO antibacterial activity, E. coli B996 (resistant to Kanamycin and paromomycin); format: cell-based; details: Escherichia coli, nutrient broth, 24 hours at 37° C
# Experimental: as §1, §2, §3, §4, §5, §6, §7
# S. fecalis = test: IN VITRO antibacterial activity, S. fecalis; format: cell-based; details: S. fecalis; nutrient broth, 24 hours at 37° C; read-out: MIC
# Experimental: as §1, §2, §3, §4, §5, §6, §7
# P. aeruginosa = test: IN VITRO antibacterial activity, P. aeruginosa; format: cell-based; details: Pseudomonas aeruginosa; P. aeruginosa; nutrient broth, 24 hours at 37° C; read-out: MIC
# Experimental: as §1, §2, §3, §4, §5, §6, §7
# E. coli 198 = test: IN VITRO antibacterial activity, E. coli 198; format: cell-based; details: Escherichia coli; E. coli 198; nutrient broth, 24 hours at 37° C; read-out: MIC
# Experimental: as §1, §2, §3, §4, §5, §6, §7
# A. aerogenes = test: IN VITRO antibacterial activity, A. aerogenes; format: cell-based; details: Klebsiella aerogenes; A. aerogenes; nutrient broth, 24 hours at 37° C; read-out: MIC
# Experimental: as §1, §2, §3, §4, §5, §6, §7
# K. pneumoniae = test: IN VITRO antibacterial activity, K. pneumoniae; format: cell-based; details: Klebsiella pneumoniae; K. pneumoniae; nutrient broth, 24 hours at 37° C; read-out: MIC
# Experimental: as §1, §2, §3, §4, §5, §6, §7
compound,measurement,setting,value
"NC[C@@H]1O[C@H](O[C@H]2[C@@H](O)[C@H](O[C@@H]3[C@@H](O)[C@H](N)C[C@H](N)[C@H]3O[C@H]3O[C@H](CN)[C@@H](O)[C@H](O)[C@H]3N)O[C@@H]2CN)[C@H](N)[C@@H](O)[C@@H]1O [5""-Amino-5""-deoxyneomycin B, 5""-amino-5""-deoxyneomycin B]",MIC,P. aeruginosa 359,1.6 µg/mL
same,MIC,S. fecalis 353,0.8 µg/mL
same,LD50,in vivo,60 to 80 mg/kg
same,MIC,A. aerogenes 357,0.8 µg/mL
same,MIC,E. coli B989,1.6 µg/mL
same,MIC,S. pullorum 358,0.4 µg/mL
same,MIC,"P. aeruginosa 377; Pseudomonas aeruginosa, resistant organism P. aeruginosa 377, nutrient broth, 24 hours at 37° C, read-out: MIC",1.6 µg/mL
same,MIC,Pr. mirabilis 360,0.8 µg/mL
same,MIC,[1],0.4 µg/mL
same,MIC,S. pyogenes S B352,< 0.1 µg/mL
same,MIC,[2],0.4 µg/mL
same,antibacterial activity against resistant E. Coli,[3],particularly effective
same,MIC,"P. aeruginosa 87442; Pseudomonas aeruginosa, resistant organism P. aeruginosa 87442, nutrient broth, 24 hours at 37° C, read-out: MIC",0.8 µg/mL
same,MIC,Pr. vulgaris 316,0.8 µg/mL
same,MIC,S. pyogenes R 353,< 0.1 µg/mL
same,MIC,E. Coli 198 (ATCC 1/229),0.8 µg/mL
same,antibacterial activity against resistant P. Aeruginosa,[4],particularly effective
same,MIC,"E. coli B1002; resistant organism E. coli B1002, nutrient broth, 24 hours at 37° C, read-out: MIC",3.2 µg/mL
"NC[C@@H]1O[C@H](O[C@H]2[C@@H](O)[C@H](O[C@@H]3[C@@H](O)[C@H](N)C[C@H](N)[C@H]3O[C@H]3O[C@H](CO)[C@@H](O)[C@H](O)[C@H]3N)O[C@@H]2CN)[C@H](N)[C@@H](O)[C@@H]1O [5""-amino-5""-deoxyparomomycin I]",MIC,S. pyogenes R,0.4 µg/mL
same,MIC,S. pyogenes S,< 0.2 µg/mL
same,MIC,S. pullorm,0.8 µg/mL
same,MIC,S. marcesceus,0.8 µg/mL
same,antibacterial activity against resistant E. Coli,[3],particularly effective
same,MIC,P. mirabilis,1.6 µg/mL
same,MIC,E. coli B996,12.5 µg/mL
same,MIC,S. fecalis,6.4 µg/mL
same,MIC,P. aeruginosa,12.5 µg/mL
same,antibacterial activity against resistant P. Aeruginosa,[4],particularly effective
same,MIC,E. coli 198,6.4 µg/mL
same,MIC,A. aerogenes,1.6 µg/mL
same,MIC,K. pneumoniae,0.8 µg/mL
NC[C@H]1O[C@H](O[C@H]2[C@H](O)[C@@H](O[C@H]3O[C@H](CO)[C@@H](O)[C@H](N)[C@H]3O)[C@H](N)C[C@@H]2N)[C@H](O)[C@@H](O)[C@@H]1O [Kanamycin],MIC,E. coli B989,100 µg/mL
same,MIC,"P. aeruginosa 377; Pseudomonas aeruginosa, 377, 24 h",3.2 µg/mL
same,MIC,"P. aeruginosa 87442; Pseudomonas aeruginosa, 87442, 24 h",0.8 µg/mL
same,MIC,"E. coli B1002; B1002, 24 h",< 100 µg/mL
